ChEMBL document CHEMBL1201862, “PubChem BioAssay data set” (2004)
Calls of active or inactive are those of the source.

Assays:
[1] = target: NAD-dependent protein deacylase sirtuin-5, mitochondrial (Homo sapiens, UniProt Q9NXA8); test: SIRT5 desuccinylase inhibitors, dose response, biochemical, fluorescence imaging, cherry-pick, set 5 (AID 720591);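 further: desuccinylation of succinyl peptide AMC substrate read as fluorescence after trypsin release; potency of inhibitors that lower fluorescence and may act on trypsin instead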
[2] = target: Major prion protein (Homo sapiens, UniProt P04156); assay type: functional, cell-based
[3] = cells
[4] = P. falciparum late gametocyte killing, dose response, luminescence (AID 1117278); assay type: functional, cell-based;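 further: gametocytes exposed to compound for 24 hours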
[5] = Jurkat T cell cytotoxicity, dose response, cytotoxicity control for P. falciparum gametocyte viability project, luminescence (AID 1117277); assay type: functional, cell-based;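 further: potency reflects loss of cellular ATP meaning fewer viable cells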
[6] = P. falciparum ATP4 D1247Y mutant growth inhibitors, dose response, NITD609-resistant line, SYBR Green, dry powder (AID 1159571); assay type: functional, cell-based;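 further: parasites synchronized at ring stage by sorbitol before testing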
[7] = HepG2 cell cytotoxicity, dose response, cytotoxicity control, cherry-picked samples (AID 1159577); assay type: functional, cell-based
[8] = P. falciparum Dd2 growth inhibitors, dose response, SYBR Green, cherry-picked samples (AID 1159567); assay type: functional, cell-based
[9] = P. falciparum Dd2 growth inhibitors, dose response, SYBR Green, dry powder samples (AID 1159566); assay type: functional, cell-based;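 further: potency for growth inhibition with lower SYBR green DNA signal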
[10] = HepG2 cell cytotoxicity, dose response, cytotoxicity control, plate reader, dry powder samples (AID 1159569); assay type: functional, cell-based;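 further: inhibitor potency with signal falling toward the positive control level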
[11] = P. falciparum 3D7-ScDHODH growth inhibitors, dose response, SYBR Green, dry powder samples (AID 1159570); assay type: functional, cell-based;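 further: parasite growth measured after 72 hours of compound exposure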
[12] = T. cruzi growth inhibition in host cells, dose response, cell-based, plate reader, dry powder, set 2 (AID 652275); assay type: functional
[13] = cytotoxicity dependent on PAX8, dose response, cell-based, plate reader, dry powder (AID 743049); assay type: functional
[14] = target: Paired box protein Pax-8 (Homo sapiens, UniProt Q06710); test: inhibitors of PAX8-driven TPO luciferase reporter, dose response, RMG-I cells, cherry-pick (AID 687027); assay type: functional, cell-based;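 further: luciferase reporter driven by Pax8 target thyroperoxidase promoter measured by SteadyGlo luminescence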
[15] = cytotoxicity in OVCAR4 cells, dose response, cytotoxicity control for PAX8 inhibitor project, cell-based, plate reader, dry powder, SA11 (AID 743150); assay type: functional; details: OVCAR-4
[16] = cytotoxicity in COV434 cells, dose response, cytotoxicity control for PAX8 inhibitor project, cell-based, plate reader, dry powder, SA7 (AID 743145); assay type: functional
[17] = PAX5 activity inhibitors, dose response, selectivity assay for PAX8 inhibitor project, cell-based, plate reader, dry powder samples (AID 743047); assay type: functional;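 further: HEK293 cells carrying a Pax5 driven CD19 promoter luciferase reporter; potency of inhibitors that lower reporter luminescence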
[18] = cytotoxicity in COV362 ovarian cancer cells, dose response, cytotoxicity control for PAX8 inhibitor project, cell-based, plate reader, dry powder, SA12 (AID 743144); assay type: functional
[19] = PAX2 cell-based inhibition, dose response, selectivity assay for PAX8 inhibitor project, plate reader, dry powder samples (AID 743048); assay type: functional;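 further: HEK293 cells carrying a WT1 promoter luciferase reporter driven by expressed Pax2; potency is for inhibition of Pax2 driven reporter signal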
[20] = target: RNA-editing ligase 1, mitochondrial (Trypanosoma brucei brucei, UniProt P86926); test: TbREL1 ligase inhibitors, dose response, biochemical, fluorescence, Trypanosoma brucei (AID 1117295); assay type: functional
[21] = P. falciparum Dd2 growth inhibitors, dose response, SYBR Green, dry powder samples, set 9 (AID 1159568); assay type: functional, cell-based
[22] = target: Histone-lysine N-methyltransferase NSD2 (Homo sapiens, UniProt O96028); assay type: biochemical
[23] = target: Mitogen-activated protein kinase 10 (Homo sapiens, UniProt P53779); test: Dose response biochemical screening assay for inhibitors of c-Jun N-Terminal Kinase 3 (JNK3). [Related pubchem assays: 746 ]
[24] = target: Kallikrein-7 (Homo sapiens, UniProt P49862); test: Fluorescence Intensity-based biochemical primary high throughput dose response assay to identify activators of kallikrein-7 (K7) zymogen.
[25] = cells; remark: listed apart in the source
[26] = cytotoxicity in OVCAR8 ovarian cancer cells, dose response, PAX8 project, cell-based, plate reader, dry powder samples (AID 743197); assay type: functional; details: OVCAR-8
[27] = IOSE-T80 ovarian epithelial cell cytotoxicity, dose response, cytotoxicity control for PAX8 inhibitor project, plate reader, dry powder samples (AID 743045); assay type: functional, cell-based
[28] = NIH:OVCAR-3 ovarian cancer cell cytotoxicity, dose response, PAX8 inhibitor project, plate reader, dry powder samples (AID 743044); assay type: functional, cell-based
[29] = non-specific cell cytotoxicity, dose response, cytotoxicity control for PAX8 inhibitor project, plate reader, dry powder samples (AID 743021); assay type: functional, cell-based
[30] = IGROV1 ovarian cancer cell cytotoxicity, dose response, PAX8 inhibitor project, plate reader, dry powder samples (AID 743043); assay type: functional, cell-based; details: IGROV-1
[31] = HepG2 cell cytotoxicity, dose response, cytotoxicity control, cherry-picks, set 5 (AID 1053118); assay type: functional, cell-based
[32] = target: T1, Estrogen receptor beta (Homo sapiens, UniProt Q92731);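 further: recombinant ER-beta bound to coactivator SRC1 peptide in presence of estradiol agonist; inhibitors block coactivator peptide binding and lower the FRET signal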
[33] = target: T1, Estrogen receptor beta; test: ERβ–SRC-3 coactivator interaction inhibitors, confirmation, orthogonal assay, biochemical, ELISA, streptavidin-HRP readout (AID 1060)
[34] = target: T2, Estrogen receptor (Homo sapiens, UniProt P03372);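 further: potency for inhibiting coactivator peptide recruitment to the receptor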
T2 sequence (P03372 whole entry): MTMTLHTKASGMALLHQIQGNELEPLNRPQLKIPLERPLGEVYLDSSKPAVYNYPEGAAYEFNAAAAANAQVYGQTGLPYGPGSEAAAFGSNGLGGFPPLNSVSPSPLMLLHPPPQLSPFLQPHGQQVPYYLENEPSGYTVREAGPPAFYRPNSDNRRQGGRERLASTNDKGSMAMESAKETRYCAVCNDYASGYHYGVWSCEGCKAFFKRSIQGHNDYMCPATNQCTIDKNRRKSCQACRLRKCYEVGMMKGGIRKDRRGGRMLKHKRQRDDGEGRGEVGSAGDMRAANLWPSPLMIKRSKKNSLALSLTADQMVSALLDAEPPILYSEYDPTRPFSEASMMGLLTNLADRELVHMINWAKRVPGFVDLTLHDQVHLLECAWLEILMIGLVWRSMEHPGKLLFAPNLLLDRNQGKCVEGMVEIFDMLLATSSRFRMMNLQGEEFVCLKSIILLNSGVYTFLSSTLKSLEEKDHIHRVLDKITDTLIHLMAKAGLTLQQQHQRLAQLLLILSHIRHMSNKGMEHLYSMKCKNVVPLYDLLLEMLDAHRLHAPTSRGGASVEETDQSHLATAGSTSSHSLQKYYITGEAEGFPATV

[35] = LGR2 antagonists, dose response, cell-based, HEK293, CRE-luciferase reporter, cherry pick, set 2 (AID 743343); assay type: functional;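 further: transfected cells were stimulated with diluted bursicon conditioned medium after compound addition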
[36] = MC4R antagonists, dose response, counter-screen for LGR2 antagonist project, cell-based, plate reader, cherry pick (AID 743444); assay type: functional;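 further: transfected HEK 293 cells stimulated with alpha-MSH peptide; potency of inhibitors of the alpha-MSH evoked signal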
[37] = HepG2 cell cytotoxicity, dose response, cytotoxicity control, plate reader, cherry-pick, antagonist series (AID 743416); assay type: functional, cell-based
[38] = A549 cell cytotoxicity, dose response, cytotoxicity control, plate reader, cherry-pick, antagonist series (AID 743412); assay type: functional, cell-based
[39] = target: T3, Voltage-gated N-type calcium channel alpha-1B subunit/Amyloid beta A4 precursor protein-binding family A member 1 (Homo sapiens, UniProt Q00975+Q02410); assay type: protein assay
[40] = target: T3, Voltage-gated N-type calcium channel alpha-1B subunit/Amyloid beta A4 precursor protein-binding family A member 1; assay type: protein assay; remark: listed apart in the source
[41] = target: Albumin (Bos taurus, UniProt P02769); test: Counterscreen for inhibitors of T-cell receptor (TCR)-CD3 interaction: Fluorescence-based biochemical high throughput dose response assay to identify inhibitors of T-cell receptor (TCR)-CD3 interaction using a TAMRA-labeled BSA probe.; assay type: functional
[42] = target: T4, Zinc finger protein mex-5 (Caenorhabditis elegans, UniProt Q9XUB2); test: MEX-5/TCR-2 RNA interaction inhibitors, dose response, biochemical, C. elegans, fluorescence polarization (AID 1960)
T4 sequence (Q9XUB2 whole entry): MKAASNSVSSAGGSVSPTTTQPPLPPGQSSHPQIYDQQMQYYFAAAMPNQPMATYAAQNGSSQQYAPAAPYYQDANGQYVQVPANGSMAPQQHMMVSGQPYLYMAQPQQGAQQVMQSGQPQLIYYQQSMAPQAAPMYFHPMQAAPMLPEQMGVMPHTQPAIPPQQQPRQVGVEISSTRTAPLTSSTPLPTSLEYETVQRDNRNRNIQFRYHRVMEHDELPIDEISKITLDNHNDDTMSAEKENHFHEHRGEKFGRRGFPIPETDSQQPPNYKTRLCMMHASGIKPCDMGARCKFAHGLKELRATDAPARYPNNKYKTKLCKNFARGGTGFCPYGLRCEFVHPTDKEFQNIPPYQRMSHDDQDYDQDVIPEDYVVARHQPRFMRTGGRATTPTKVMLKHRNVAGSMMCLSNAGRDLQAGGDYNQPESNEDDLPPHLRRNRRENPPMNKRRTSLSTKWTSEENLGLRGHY

[43] = inhibitors of intracellular T. cruzi replication, confirmation, NIH3T3 host cells, beta-gal luminescence (AID 2044); assay type: functional, cell-based;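 further: intracellular parasites grown in NIH/3T3 mouse fibroblasts as host cells; luminescent beta-galactosidase reporter signal from transgenic T. cruzi replicating inside host cells; inhibitors lower the luminescence signal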
[44] = system: INS1; test: beta cell apoptosis inhibitors, cytokine rescue, dose response, luminescence, retest (AID 449756); assay type: functional, cell-based; details: Rattus norvegicus;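 further: cell death triggered by IL-1 beta plus TNF-alpha plus IFN-gamma mixture; protective hits raise ATP signal compared with cytokine alone wells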
[45] = cells; remark: listed apart in the source
[46] = cytotoxicity toward NIH3T3 fibroblasts, dose response, counter-screen, cell-based, ATP luminescence, mouse fibroblasts (AID 2010); assay type: functional;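 further: cells exposed to compound for about 90 hours before reading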

Cc1ccc2nc(N3C(=O)C(O)=C(C(=O)c4ccc(C)o4)C3c3ccc(O)cc3)sc2c1 (stereo not given)
AC50 [1]: 15.1 µM (active)

CCOC(=O)CSc1nc(-c2ccccc2)nc2ccc(F)cc12
IC50 [2]: 1.97 µM (active)
IC50 [3]: > 138 µM (inactive)

Cc1nnc(NC(=O)c2ccc(S(=O)(=O)N3CCc4ccccc4C3)cc2)o1
IC50 [4]: > 109 µM (inactive)
IC50 [5]: 80.6 µM (inactive)

OC[C@@H]1Nc2ccc(C#Cc3ccc(F)cc3)cc2[C@H]2NCC[C@@H]12
AC50 [6]: 1.42 µM (active)
AC50 [7]: 25.1 µM (active)
AC50 [8]: 2.36 µM (active)
AC50 [9]: 0.822 µM (active)
AC50 [10]: 32.6 µM (active)
AC50 [11]: 1.15 µM (active)

CN(C)C(=O)c1cccc(-c2ccc([C@H]3[C@H](CO)N4CCCCN(C(=O)C5CCC5)C[C@@H]34)cc2)c1
AC50 [12]: 0.296 µM (active)

CCCC#Cc1ccc([C@H]2[C@@H](CO)N(C(=O)C3CCCCC3)[C@H]2C#N)cc1
AC50 [13]: 12.2 µM (active)
AC50 [14]: 1.55 µM (active)
AC50 [6]: 2.55 µM (active)
AC50 [8]: 1.42 µM (active)
AC50 [9]: 0.541 µM (active)
AC50 [15]: 22.8 µM (active)
AC50 [16]: 0.000367 µM (active)
AC50 [11]: 0.996 µM (active)
AC50 [17]: 19.2 µM (active)
AC50 [18]: 0.0864 nM (active)
AC50 [19]: 26.7 µM (active)

Cc1ccc(C(C)C)c(OCCNCCc2ccccc2)c1
IC50 [20]: > 96.6 µM (inactive)

COc1ccc2c3c(n(C)c2c1)[C@H](CO)N(Cc1ccc2c(c1)OCO2)CC31CN(C(=O)c2ccc3c(c2)OCO3)C1
AC50 [21]: 0.236 µM (active)
AC50 [6]: 0.147 µM (active)
AC50 [8]: 0.54 µM (active)
AC50 [9]: 0.13 µM (active)
AC50 [10]: > 100 µM (inactive)
AC50 [11]: 0.141 µM (active)

Cc1cc(C)c2nc(SC3CCOC3=O)cc(C)c2c1 (stereo not given)
IC50 [2]: 3.66 µM (active)
IC50 [3]: > 138 µM (inactive)

CCOc1ccc2[nH]c3c(NCCN(CC)CC)ncnc3c2c1
AC50 [22]: 3.43 µM (active)

C[C@@H]1CN([C@H](C)CO)C(=O)c2cc(N(C)C)ccc2O[C@@H](C)CCCCO[C@H]1CN(C)S(=O)(=O)c1ccc(F)cc1
AC50 [21]: 10.5 µM (active)

O=C1NC(=O)c2c(NC(=O)C3CCCO3)cccc21 (stereo not given)
IC50 [23]: 56.2 µM (not active)

CN1CCN(C(=O)c2cc3nc(-c4ccco4)cc(C(F)(F)F)n3n2)CC1
EC50 [24]: 11.3 µM (inactive)

CCOC(=O)c1cc2c(=O)n3ccccc3nc2n(CCCOC)/c1=N\C(=O)c1ccncc1
AC50 [25]: 8.47 µM (active)

COc1cccc(S(=O)(=O)N2C[C@@H]3N[C@H](C2)[C@@H]3c2ccc(/C=C/c3ccccc3)cc2)c1
AC50 [26]: 48.9 µM (active)
AC50 [14]: 9.43 µM (active)
AC50 [27]: 36.1 µM (active)
AC50 [28]: 40.8 µM (active)
AC50 [29]: 33.7 µM (active)
AC50 [30]: 58 µM (active)

C=C(C)Cn1c2ccc(NC(=O)NCCc3cccs3)cc2c(=O)n1C
EC50 [24]: > 7.72 µM (active)

C[C@H]1CN([C@@H](C)CO)C(=O)c2cc(NC(=O)CCCN(C)C)ccc2O[C@H]1CN(C)Cc1ccc(-c2ccccc2)cc1
AC50 [31]: 44.9 µM (active)

COC(=O)C1=C(C)N(Cc2ccc(C(F)(F)F)cc2)C(NCc2ccccc2C(F)(F)F)=NC1c1ccc(F)cc1 (stereo not given)
IC50 [20]: > 96.6 µM (inactive)

CCCCC[C@H]1CN(Cc2ccccc2)C(=O)[C@@H]1CC(=O)NCc1ccccc1
AC50 [1]: 14.9 µM (active)

Cc1occc1-c1nnc(SCc2cc(=O)n3cc(Br)ccc3n2)n1C
IC50 [32]: > 50 µM (not active)
IC50 [33]: 0.468 µM (not active)
IC50 [34]: > 50 µM (not active)

COc1ccc2nc(-c3ccccn3)ccc2c1
AC50 [35]: 9.32 µM (active)
AC50 [36]: 13.4 µM (active)
AC50 [37]: 29.3 µM (active)
AC50 [38]: > 52 µM (inactive)

COC(=O)c1c(-c2cccs2)csc1NC(=O)CN1CCOCC1
IC50 [23]: 55.7 µM (not active)

COc1ccc(C(=O)Nc2nnc(CC(=O)N/N=C/c3ccc(O)cc3O)s2)cc1
IC50 [39]: 2.33 µM (active)
IC50 [40]: 19.8 µM (active)
IC50 [41]: > 94.1 µM (inactive)
EC50 [42]: > 300 µM (not active)

CCCOC(=O)c1ccc(-[n+]2c(-c3ccccc3)cc(-c3ccccc3)cc2-c2ccccc2)cc1.[O-][Cl+3]([O-])([O-])[O-]
EC50 [43]: < 0.1 µM (active)
IC50 [4]: > 109 µM (inactive)
AC50 [44]: 1.82 µM (active)
IC50 [5]: 6.87 µM (active)
EC50 [45]: 0.1 µM (active)
EC50 [46]: > 60 µM (not active)
